# Entries after “also recorded” stand apart in the source; their conditions may differ.
# Experiments:
# [1] = test system: human microsomal liver amidase; assay: Incubations with HLM for microsomal hydrolase/amidase activity; format: in vitro ADME
# Procedure: Incubations with HLM for Microsomal Hydrolase/Amidase Activity Prior to the reaction for amidase activity, the reaction mixture containing KPi buffer (pH 7.4, 8.4, or 9.4) and HLM was pre-incubated at 50° C. for 5 minutes to inactivate CYP and FMO activities in HLM. The mixture was placed on ice to cool down. An aliquot was taken out which was considered as t=0 min incubation. Then 10 μM MPZ was added into the remaining mixture and incubated at 37° C. on an orbital shaker for 60 minutes. A parallel set of incubations was conducted with 10 μM MPZ in the presence at 2 and 16 μM, of BNPP (a known inhibitor of amidase). All reactions were in triplicate. The total percentage of organic solvent in incubation mixture was ≤0.1%. The reactions were terminated by the addition of chilled acetonitrile: methanol, 90:10, (v/v). The samples were vortex-mixed and stored at ≤−70° C. and were subjected analyzed by LC MS/MS.
# [2] = test system: microsomal FMOs in HLM; assay: Incubation with HLM for FMO (pH 8.4, methimazole, heat); format: in vitro ADME, human; conditions: HLM pH 8.4, 1 mM methimazole
# Procedure: MPZ, at 1.0 and 10.0 μM, was incubated with HLM or HKM to determine the contribution of microsomal FMOs on the metabolism of MPZ.
# A reaction mixture containing KPi buffer (pH 8.4), HLM or HKM (0.5 mg/mL protein) and MPZ (1.0 and 10.0 μM) was pre-incubated for 3-5 minutes at 37° C. The reaction was initiated by the addition of NADPH into the reaction mixture. Reaction was conducted for 0 and 60 min. A positive control (benzydamine, 100 μM) was incubated in duplicate for 0 and 20 minutes. Parallel incubation was conducted by adding 1 mM methimazole, a non-specific FMO inhibitor, under identical conditions. Heat inactivated microsomes (50° C. for at least 5 minutes) was incubated under identical conditions negative control. All other procedures were the same as described previously.
# [3] = test system: cytochrome P450 enzymes in HLM; assay: HLM incubation with CYP inhibitors, with and without NADPH; conditions: peak area ratio, 60 min, ABT 1 mM, quinidine 1 μM
# Procedure: Initially, two sets of incubations were conducted with HLM (0.5 mg/mL microsomal protein), 1 and 1011M MPZ, 100 mM KPi buffer (pH 7.4) where one set was in the presence and the other set was in the absence of 1 mM ABT, a non-specific CYP inhibitor for 60 minutes. This allowed the assessment of total CYP contribution for MPZ metabolism. Then, CYP-specific chemical inhibitors were used to assess the contribution of individual major CYP-isoforms where HLM were incubated with 1 or 1011M MPZ in the presence and in the absence of each CYP specific inhibitor at 37° C. for 60 minutes. The following CYP-isoform specific chemical inhibitors were used; furafylline (10 μM), tranylcypromine (10 μM), montelucast (0.5 μM), sulfaphenazole (5 μM), (+) benzylnirvinol (5 μM), quinidine (1 μM) and itraconazole (2.5 μM), for CYP1A2, CYP2B6, CYP2C8, CYP2C9, CYP2C19, CYP2D6 and CYP3A4/5. Parallel incubation with seven CYP specific probe substrates were included in as positive controls. For negative control reaction, MPZ was incubated at 37° C. in duplicate in reaction mixture devoid of NADPH. All other procedures were the same as previously described.
# [4] = Procedure: For protein concentration optimization, MPZ at 1 μM was incubated with varying concentration of HLM proteins (0.1, 0.25, 0.5, and 1.0 mg/mL microsomal protein), 100 mM KPi buffer (pH 7.4). After pre-incubation for 3-5 minutes at 37° C., the reaction was initiated by the addition of NADPH (1 mM) for 60 minutes in triplicates.
# For incubation time optimization, MPZ at 1 μM was incubated with pooled HLM (0.5 mg/mL microsomal protein) and 100 mM KPi buffer (pH 7.4). After pre-incubation for) for 3-5 minutes at 37° C., the reaction was initiated by the addition NADPH (1 mM) incubated for 0, 10, 20, 40, 60, and 90 minutes to determine the optimal incubation time (linear range). All metabolic reactions in this study were terminated by the addition of chilled organic solvent (acetonitrile:ethanol 90:10, v/v) containing internal standards, unless otherwise indicated.
# LC separation conditions were developed for MPZ and its metabolites (MPZA and MPZS), 7 hydroxycoumarin, each metabolite of CYP probe substrate, benzydamine N oxide, and phthalazine. The LC MS/MS system consisted of a Shimadzu Nexera X2 LC-30 UPLC system (Shimadzu Corporation, Kyoto, Japan), and an API 4000 triple quadrupole mass spectrometer (SCIEX, Framingham, MA) was used for analysis. All analytes were analyzed using electrospray ionization (ESI) in positive ion mode except for 7-EC, which used negative ion mode. The LC-MS/MS system was controlled by Analyst software (version 1.6.1, SCIEX, Framingham, MA).
# For each analytical method, a calibration curve was generated for the quantification of MPZ and its two metabolites (MPZA and MPZS). […] PAR was also used for all positive control compounds.
# % parent remaining=(mean concentration or PAR at each sampling time point/mean concentration or PAR of time zero)×100
# [5] = Incubation of MPZ in human liver S9; format: in vitro ADME; conditions: human liver S9, 60-minute incubation
# Procedure: Initial experiment was conducted with S9 fractions from liver and intestine to assess the role of liver and intestinal enzymes in the metabolism of MPZ. The reaction mixture contained 2.5 μM MPZ, pooled human liver or intestine S9 fraction (1 mg/mL S9 protein), 100 mM KPi buffer (pH 7.4). The reaction mixture was pre-incubated for 3-5 min at 37° C. in a humidified incubator filled with 5% CO2 followed by the addition of NADPH (1 mM) to initiate the reaction. The reaction was incubated for 0 and 60 min. The total percentage of organic solvent in incubation mixture was <0.1%. The reactions were terminated by the addition of sample mixture of acetonitrile and ethanol (90:10, v/v). The positive control substrate, 7-EC, was incubated in triplicate in an identical manner as MPZ for S9 fractions.
compound,measurement,setting,value
"O=[N+]([O-])c1ccc(OP(=O)(O)Oc2ccc([N+](=O)[O-])cc2)cc1 [BNPP, bis(4-nitrophenyl) phosphate]",activity (MPZA formation) inhibited,"[1]; BNPP 2 μM, HLM, 10 μM MPZ, even at the highest pH",at least 97%
same,MPZA formation inhibited,"[1]; BNPP 16 μM, HLM, 10 μM MPZ, all three pH values",> 99%
same,inhibition of MPZA formation in HLM (in words),"[1]; BNPP 2 and 16 μM, pH 7.4, 8.4, 9.4",dramatically inhibited the formation of MPZA in HLM; also recorded: effectively inhibits formation of MPZA under all conditions
"Cn1cc[nH]c1=S [methimazole, reference compound]",effect of FMO inhibitor on MPZA formation,[2],not inhibited
"C=C[C@H]1C[N@@]2CC[C@H]1C[C@@H]2[C@@H](O)c1ccnc2ccc(OC)cc12 [quinidine, reference compound]",effect of CYP inhibitor on MPZH formation,[3],inhibited formation of MPZH
metopimazine sulfoxide [MPZS],Peak Area at Time 0,[4],0
same,Peak Area at Time 90 min,[4],59
same,metabolites formed,[5],formed

# From patent US20240156832A1, “METHODS OF METABOLIZING METOPIMAZINE AND ITS SALTS” (Neurogastrx, Inc., priority 2020, published 2024)
